Measured values as given in US5057512A, “3-amino-2-oxo-azetidine-1-sulfonic acids” (Uclaf; Roussel, priority 1981, dated 1991).

Tests used:
Test in all cases: M.I.C., dilutions in liquid medium
Type in all cases: cell-based
Escherichia coli DC 2 = settings: Escherichia coli, DC2, 37° C.
Protocol: (§1) A. Activity in Vitro-Method of Dilutions in Liquid Medium
(§2) A series of tubes was prepared in which the same amount of sterile nutritive medium was distributed and there was distributed in each tube increasing amounts of the test product. Then, each tube was inoculated with a bacterial strain and after incubation for twenty-four or forty-eight hours in an oven at 37° C., the inhibition of the growth was evaluated by trans-illumination to determine the minimum inhibiting concentrations (M.I.C.), expressed in μg/ml.

[1] = system: Enterobacter cloacae 1321 E; settings: Enterobacter cloacae, 1321E, 37° C.
Protocol: as §1, §2

[2] = system: Proteus mirabilis (indol -) A 235; settings: Proteus mirabilis, 37° C.
Protocol: as §1, §2

[3] = system: Pseudomonas aeruginosa 1771 m; settings: Pseudomonas aeruginosa, 1771M, 37° C.
Protocol: as §1, §2

[4] = system: Serratia Resistant to Gentamycine 2 532; settings: 37° C.; for MIC: Serratia
Protocol: as §1, §2

Escherichia coli UC 1894 = settings: Escherichia coli, UC1894, 37° C.
Protocol: as §1, §2

Providencia Du 48 = settings: Providencia, DU48, 37° C.
Protocol: as §1, §2

[5] = system: Klebsiella aerogenes 1082 E; settings: Klebsiella aerogenes, 1082E, 37° C.
Protocol: as §1, §2

[6] = system: Klebsiella Pneumoniae Exp. 52145; settings: 37° C.; for MIC: Klebsiella pneumoniae
Protocol: as §1, §2

[7] = system: Salmonella typhimurium MZ 11; settings: Salmonella enterica, TYPHIMURIUM, 37° C.
Protocol: as §1, §2

[8] = system: Klebsiella aerogenes 1522 E; settings: Klebsiella aerogenes, 1522E, 37° C.
Protocol: as §1, §2

[9] = system: Proteus vulgaris (indol +) A 232; settings: Proteus vulgaris, 37° C.
Protocol: as §1, §2

Escherichia coli 0 78 = settings: 37° C.
Protocol: as §1, §2

Escherichia coli DC 0 = settings: Escherichia coli, 37° C.
Protocol: as §1, §2

Escherichia coli 1507 E = settings: Escherichia coli, 1507E, 37° C.
Protocol: as §1, §2

Escherichia coli T E M = settings: Escherichia coli, 37° C.
Protocol: as §1, §2

[10] = system: Escherichia Coli Resistant to Gentamycine Tobramycine R55 123 D; settings: 37° C.
Protocol: as §1, §2

[11] = system: Escherichia Coli Sensitive to Tetracycline 7624; settings: 37° C.
Protocol: as §1, §2

[12] = system: Salmonella typhimurium 420; settings: Salmonella enterica, 37° C.
Protocol: as §1, §2

[13] = system: Klebsiella Pneumoniae 2536 Resistant Gentamycine; settings: 37° C.
Protocol: as §1, §2

Enterobacter Cloacae 681 = settings: 37° C.
Protocol: as §1, §2

[14] = system: Escherichia Coli Resistant to Tetracycline AT CC 11 303; settings: 37° C.
Protocol: as §1, §2

With CON=C(C(=O)NC1C(=O)N(S(=O)(=O)O)C1CF)c1csc(N)n1 (mixture of isomers) [Example 5, Racemate of syn isomer of cis 4-fluoromethyl-3-[2-(2-amino-4-thiazolyl)-2-methoxyimino-acetamido]-2-oxo-azetidine-1-sulfonic acid] the MIC (Escherichia coli DC 2; 24 H) was 0.15 µg/mL, the MIC (Escherichia coli DC 2; 48 H) was 0.3 µg/mL and the MIC ([1]; 24 H) was 0.08 µg/mL. The MIC ([1]; 48 H) was 0.08 µg/mL, the MIC ([2]; 24 h) was 0.08 µg/mL and the MIC ([2]; 48 h) was 0.08 µg/mL. For the same compound, the MIC ([3]; 24 H) was 0.6 µg/mL, the MIC ([3]; 48 H) was 1.2 µg/mL and the M.I.C. ([4]; 24 Hr.) was 0.06 µg/mL. For the same compound, the MIC ([4]; 48 h) was 1.2 µg/mL, the MIC (Escherichia coli UC 1894; 24 H) was no more than 0.04 µg/mL and the MIC (Escherichia coli UC 1894; 48 H) was no more than 0.04 µg/mL. It also gave an MIC (Providencia Du 48; 24 Hr.) of 0.3 µg/mL, an MIC (Providencia Du 48; 48 Hr.) of 0.3 µg/mL and an MIC ([5]; 24 h) of 5 µg/mL. It also gave an MIC ([5]; 48 h) of 5 µg/mL, a M.I.C. ([6]; 24 Hr.) of 0.3 µg/mL and an MIC ([6]; 48 h) of 0.3 µg/mL. It also gave an MIC ([7]; 24 h) of 0.08 µg/mL, an MIC ([7]; 48 h) of 0.08 µg/mL and an MIC ([8]; 24 h) of 0.15 µg/mL. The MIC ([8]; 48 h) was 0.15 µg/mL, the MIC ([9]; 24 Hr.) was no more than 0.04 µg/mL and the MIC ([9]; 48 Hr.) was no more than 0.04 µg/mL. For the same compound, the MIC (Escherichia coli 0 78; Escherichia coli, 078, 24 h, 24 H) was 0.15 µg/mL, the MIC (Escherichia coli 0 78; Escherichia coli, 078, 48 h, 48 H) was 0.15 µg/mL and the MIC (Escherichia coli DC 0; DC0, 24 h, 24 H) was 0.3 µg/mL. The MIC (Escherichia coli DC 0; DC0, 48 h, 48 H) was 0.3 µg/mL, the MIC (Escherichia coli 1507 E; 24 h) was 0.15 µg/mL and the MIC (Escherichia coli 1507 E; 48 h) was 0.15 µg/mL. The MIC (Escherichia coli T E M; 24 h) was 0.15 µg/mL and the MIC (Escherichia coli T E M; 48 h) was 0.15 µg/mL.

In the case of CON=C(C(=O)NC1C(=O)N(S(=O)(=O)O)C1CCl)c1csc(N)n1 (mixture of isomers) [Example 1, Racemate of syn isomer of cis 4-chloromethyl-3-[2-(2-amino-4-thiazolyl)-2-methoxyimino-acetamido]-2-oxoazetidine-1-sulfonic acid], the MIC ([2]; 24 h) is reported as 0.16 µg/mL, the MIC ([2]; 48 h) is reported as 0.16 µg/mL and the MIC ([10]; 24 Hr.) is reported as 0.62 µg/mL. It also gave an MIC ([10]; 48 Hr.) of 0.62 µg/mL, an MIC ([4]; 24 h) of 5 µg/mL and an MIC ([4]; 48 h) of 5 µg/mL. For the same compound, the MIC (Providencia Du 48; 24 Hr.) was 0.62 µg/mL, the MIC (Providencia Du 48; 48 Hr.) was 0.62 µg/mL and the MIC ([6]; 24 h) was 1.25 µg/mL. It also gave an MIC ([6]; 48 h) of 2.5 µg/mL, an MIC ([11]; 24 Hr.) of 1.25 µg/mL and an MIC ([11]; 48 Hr.) of 1.25 µg/mL. It also gave an MIC ([12]; 24 Hr.) of 1.25 µg/mL, an MIC ([12]; 48 Hr.) of 1.25 µg/mL and an MIC ([13]; 24 Hr.) of 2.5 µg/mL. The MIC ([13]; 48 Hr.) was 2.5 µg/mL, the MIC ([9]; 24 Hr.) was 0.08 µg/mL and the MIC ([9]; 48 Hr.) was 0.08 µg/mL. It also gave an MIC (Enterobacter Cloacae 681; CLOACAE681, 24 Hr.) of 2.5 µg/mL, an MIC (Enterobacter Cloacae 681; CLOACAE681, 48 Hr.) of 2.5 µg/mL and an MIC ([14]; 24 Hr.) of 0.16 µg/mL. It also gave an MIC ([14]; 48 Hr.) of 0.16 µg/mL.
